Assay results taken from patent publication US20250197428A1, “INHIBITORS OF KIF18A AND USES THEREOF” (ACCENT THERAPEUTICS, INC., priority 2022, published 2025).

Assays:
OVCAR-3 cells = assay: In vitro anti-proliferative activity assay in cancer cell line OVCAR-3 (CellTiter-Glo, 4- or 7-day); format: cell-based; details: Homo sapiens, OVCAR-3, 168 h, 7-day assay; read-out: OVCAR-3 cellular antiproliferation assay IC50
KIF18A = KIF18A (Homo sapiens (Human), UniProt Q8NI77); assay: KIF18A Biochemical Assay (ATPase, ADP-Glo)
KIF18A, sequence (Q8NI77 1-367): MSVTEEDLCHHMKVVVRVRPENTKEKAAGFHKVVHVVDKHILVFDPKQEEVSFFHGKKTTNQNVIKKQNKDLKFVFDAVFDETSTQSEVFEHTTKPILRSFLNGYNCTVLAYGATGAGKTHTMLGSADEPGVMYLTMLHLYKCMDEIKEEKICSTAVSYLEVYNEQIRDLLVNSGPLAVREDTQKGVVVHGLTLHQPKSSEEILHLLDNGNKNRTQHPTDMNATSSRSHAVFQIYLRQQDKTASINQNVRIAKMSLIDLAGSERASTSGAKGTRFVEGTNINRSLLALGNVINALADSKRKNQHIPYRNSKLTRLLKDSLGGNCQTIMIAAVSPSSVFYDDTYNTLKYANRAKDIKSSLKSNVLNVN
KIF18A, sequence (P02550 whole entry partner): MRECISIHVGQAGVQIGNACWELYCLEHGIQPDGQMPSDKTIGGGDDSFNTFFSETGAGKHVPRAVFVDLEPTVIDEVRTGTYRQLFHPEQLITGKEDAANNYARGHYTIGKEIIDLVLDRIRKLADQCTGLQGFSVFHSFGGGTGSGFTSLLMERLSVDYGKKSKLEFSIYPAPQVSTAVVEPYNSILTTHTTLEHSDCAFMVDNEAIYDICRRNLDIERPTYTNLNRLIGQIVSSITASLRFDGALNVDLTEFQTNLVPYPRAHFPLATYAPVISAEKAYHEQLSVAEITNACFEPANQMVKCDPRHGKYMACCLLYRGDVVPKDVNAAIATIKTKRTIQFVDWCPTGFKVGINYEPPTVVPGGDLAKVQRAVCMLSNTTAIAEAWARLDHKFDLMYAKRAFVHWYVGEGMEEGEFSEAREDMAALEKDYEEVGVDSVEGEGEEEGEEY
KIF18A, sequence (P02554 whole entry partner): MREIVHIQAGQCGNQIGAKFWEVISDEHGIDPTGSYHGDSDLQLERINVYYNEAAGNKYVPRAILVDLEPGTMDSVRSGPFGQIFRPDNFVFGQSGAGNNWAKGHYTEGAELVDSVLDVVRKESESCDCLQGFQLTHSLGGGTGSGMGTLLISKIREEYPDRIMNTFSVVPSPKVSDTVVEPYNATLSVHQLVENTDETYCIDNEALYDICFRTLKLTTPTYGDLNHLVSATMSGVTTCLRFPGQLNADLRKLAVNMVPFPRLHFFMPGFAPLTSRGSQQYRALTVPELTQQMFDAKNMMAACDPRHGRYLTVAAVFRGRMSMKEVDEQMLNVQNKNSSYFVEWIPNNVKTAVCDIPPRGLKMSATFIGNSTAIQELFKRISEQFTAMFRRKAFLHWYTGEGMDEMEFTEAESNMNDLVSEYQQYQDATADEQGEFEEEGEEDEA

Row | SMILES | IC50 (OVCAR-3 cells) [nM] | IC50 (KIF18A) [nM]
1 | Cc1cc(NC(=O)c2ccc(S(=O)(=O)NCCO)cc2N2CC[C@]3(C(F)F)C[C@@H]3C2)nc(N2CCC(F)(F)CC2)n1 [Example 77] | 100 to 500 | 100 to 500
2 | Cc1cc(NC(=O)c2ccc(NS(=O)(=O)CCO)cc2N2CC[C@]3(C(C)(F)F)C[C@@H]3C2)nc(N2CCC(F)(F)CC2)n1 [Example 79] | > 1000 | 100 to 500
3 | Cc1cc(NC(=O)c2ccc(NS(=O)(=O)CCO)cc2N2CC[C@@]3(C(C)(F)F)C[C@H]3C2)nc(N2CCC(F)(F)CC2)n1 [Example 80] | 100 to 500 | 100 to 500
4 | CO[C@]12CCN(c3cc(NS(=O)(=O)CCO)ccc3C(=O)Nc3cc(C)nc(N4CCC(F)(F)CC4)n3)C[C@H]1C2 [Example 81] | 500 to 1000 | < 100
5 | CO[C@@]12CCN(c3cc(NS(=O)(=O)CCO)ccc3C(=O)Nc3cc(C)nc(N4CCC(F)(F)CC4)n3)C[C@@H]1C2 [Example 82] | 500 to 1000 | < 100
6 | O=C(Nc1cccc(N2CCC(F)(F)CC2)n1)c1c(F)cc(NS(=O)(=O)CCO)cc1N1CC[C@]2(C(F)F)C[C@@H]2C1 [Example 83] | 500 to 1000 | < 100
7 | C[Si]1(C)CCN(c2cc(NS(=O)(=O)CCO)ccc2C(=O)Nc2cccc(C3(C(F)(F)F)N=N3)c2)CC1 [Example 87] | 100 to 500 | < 100
8 | CC(C)(CO)Nc1ccc(C(=O)Nc2cccc(S(=O)(=O)C3CCCC3)c2)c(N2CC[Si](C)(C)CC2)n1 [Example 97] | > 1000 | > 1000
9 | C[Si]1(C)CCN(c2cc(S(=O)(=O)NCCO)ccc2C(=O)Nc2cccc(OCCC(F)(F)F)n2)CC1 [Example 99] | < 100 | < 100
10 | CNCCS(=O)(=O)Nc1ccc(C(=O)Nc2cccc(N3CCC(F)(F)CC3)n2)c(N2CC[Si](C)(C)CC2)c1 [Example 101] | 100 to 500 | < 100
11 | Cc1cc(NC(=O)c2cc(F)c(NS(=O)(=O)CCO)cc2N2CC[Si](C)(C)CC2)nc(N2CCC(F)(F)CC2)n1 [Example 103] | 100 to 500 | < 100
12 | Cc1cc(NC(=O)c2ncc(NS(=O)(=O)CCO)nc2N2CC[Si](C)(C)CC2)nc(N2CCC(F)(F)CC2)n1 [Example 105] | > 1000 | > 1000
13 | Cc1cc(NC(=O)c2ccc(NS(=O)(=O)C(C)CO)cc2N2CC[Si](C)(C)CC2)nc(N2CC(F)(F)C2)c1 (centres unmarked) [Example 114] | < 100 | < 100
14 | Cc1cc(NC(=O)c2c(F)cc(NS(=O)(=O)CCO)c(F)c2N2CC[Si](C)(C)CC2)nc(N2CCC(F)(F)CC2)n1 [Example 116] | > 1000 | 500 to 1000
15 | C[Si]1(C)CCN(c2cc(NS(=O)(=O)CCO)ccc2C(=O)Nc2cccc(OC[C@H](O)C(F)(F)F)n2)CC1 [Example 122] | < 100 | < 100
16 | C[Si]1(C)CCN(c2cc(NS(=O)(=O)CCO)cc(F)c2C(=O)Nc2cccc(OC[C@@H](O)C(F)(F)F)n2)CC1 [Example 123] | 500 to 1000 | < 100
17 | C[Si]1(C)CCN(c2cc(NS(=O)(=O)CCO)cc(F)c2C(=O)Nc2cccc(OC[C@H](O)C(F)(F)F)n2)CC1 [Example 124] | 100 to 500 | < 100
18 | C[Si]1(C)CCN(c2cc(NS(=O)(=O)NCCO)ccc2C(=O)Nc2cccc(OC[C@@H](O)C(F)(F)F)n2)CC1 [Example 125] | 100 to 500 | < 100
19 | C[Si]1(C)CCN(c2cc(NS(=O)(=O)NCCO)ccc2C(=O)Nc2cccc(OC[C@H](O)C(F)(F)F)n2)CC1 [Example 126] | 100 to 500 | < 100
20 | C[Si]1(C)CCN(c2cc(NS(C)(=O)=O)ccc2C(=O)Nc2cccc(OC[C@H](O)C(F)(F)F)n2)CC1 [Example 128] | 100 to 500 | < 100
21 | C[Si]1(C)CCN(c2cc(S(=O)(=O)CCO)ccc2C(=O)Nc2cccc(OC[C@@H](O)C(F)(F)F)n2)CC1 [Example 129] | 100 to 500 | < 100
22 | C[Si]1(C)CCN(c2cc(S(=O)(=O)CCO)ccc2C(=O)Nc2cccc(OC[C@H](O)C(F)(F)F)n2)CC1 [Example 130] | 100 to 500 | < 100
23 | C[Si]1(C)CCN(c2cc(S(=O)(=O)NCCO)ccc2C(=O)Nc2cccc(OC[C@@H](O)C(F)(F)F)n2)CC1 [Example 131] | < 100 | < 100
24 | C[Si]1(C)CCN(c2cc(S(=O)(=O)NCCO)ccc2C(=O)Nc2cccc(OC[C@H](O)C(F)(F)F)n2)CC1 [Example 132] | < 100 | < 100
25 | Cc1cc(NC(=O)c2ccc(NS(=O)(=O)CCO)cc2N2CC[Si](C)(C)CC2)nc(N2CCC(F)(F)CC2)c1F [Example 133] | 100 to 500 | < 100
